This is an account of results in patent publication US12018059B2, “Human amylin analog polypeptides and methods of use” (Intarcia Therapeutics, Inc., priority 2018, dated 2024).

Data set [1] is described as follows: Acute food intake inhibition after SC bolus injection (BioDAQ). The conditions noted are these: Long Evans rats on 45% high fat diet.
Data set [2] is described as follows: Solubility of amylin analog polypeptides (visual inspection, room temperature). It is filed as physicochemical. Here is the method: The analog polypeptides described herein were tested for solubility in saline 20% DMSO in water (i.e., bioassay buffer) or in aqueous (DI water) at room temperature. Samples were visually inspected for clarity of the sample, any appearance of turbidity or haziness.

Data set [3] can be described thus: 13-day dose-response body weight loss, continuous SC infusion by osmotic mini-pump. The following applies: 13 days, LE DIO rats; for DIO Dose Response 13 d weight loss, ΔΔ % weight loss: from baseline and vehicle control.
Another data set is described as follows: in vivo. Also on record: species or system Sprague-Dawley rats. The following applies: rat, iv, 0.033 mg/kg. Summed up: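 Peptide plasma levels measured by UPLC-MS/MS (C18, product-ion monitoring) after protein precipitation or WCX SPE, calibrated in K2EDTA/protease-inhibitor rat plasma. Dosing in non-fasted male Sprague-Dawley rats (n=3): 0.033 mg/kg over 1 h by IV or SC infusion, or 0.3 mg/kg SC bolus; sampling up to 48 h.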

A short description of data set [4]: 27-day weight loss in combination with exenatide. The conditions noted are these: LE DIO rats.
Data set [5] is described as follows: Stability of amylin analog polypeptides in solution at 37° C. (purity by LC/MS and HPLC). Format: physicochemical. The conditions noted are these: 1 mg/ml, trifluoro acetate salt. Here is the method: Several amylin analog polypeptides described herein were tested, as the trifluoro acetate salt, for stability in DMSO (i.e., organosulfur solvent) or in aqueous (i.e., in DI water) at 1 mg/ml solution. These analog polypeptides were incubated at 37° C., and samples were withdrawn at various time intervals and analyzed by LC/MS and HPLC for determination of purity and mass of the parent peptide and extent of any degradation products. The purity results of these analyses are shown in Tables 6A & 6B and are considered indicative of stability.

For data set [6] the following is noted: in vivo; cited from earlier work.
For data set [7] the following is noted: in serum; cited from earlier work.

Converted amounts (≈) assume the structure as drawn. Read-outs that look alike come from different tables or passages of the source. Starred links: 1 amine or outer side, 2 acyl side, 3 side chain; linkers in the order of their positions; H or OH if unused. Positions of bridges follow the written chain, without caps; N, C: chain ends. Non-standard residues stand in square brackets, D forms with d. Residues, ends and D or L forms follow the SMILES beside them. Groups on a side chain read outwards from the residue. *: point of attachment. C20 diacid = O=C(O)CCCCCCCCCCCCCCCCCCC(=O)*; C18 diacid = O=C(O)CCCCCCCCCCCCCCCCC(=O)*; γGlu = O=C(O)[C@H](CCC(=O)[*:2])N[*:1]; Stearoyl = CCCCCCCCCCCCCCCCCC(=O)*

Consider `CCCCCCCCCCCCCCCCCC(=O)N[C@@H](CCC(=O)N[C@@H](CCC(=O)N[C@@H](CCC(=O)NCCCC[C@@H](NC(=O)[C@H](CCC(=O)O)NC(=O)[C@H](CC(N)=O)NC(=O)[C@H](C)NC(=O)[C@H](CC(C)C)NC(=O)[C@H](CCCNC(=N)N)NC(=O)[C@H](CCC(N)=O)NC(=O)[C@@H](NC(=O)[C@H](C)NC(=O)[C@@H]1CSSC[C@H](NC(=O)[C@@H](N)CO)C(=O)N[C@@H](CC(N)=O)C(=O)N[C@@H]([C@@H](C)O)C(=O)N[C@@H](CO)C(=O)N[C@@H]([C@@H](C)O)C(=O)N1)[C@@H](C)O)C(=O)N[C@@H](Cc1c[nH]cn1)C(=O)N[C@@H](CCCCN)C(=O)N[C@@H](CO)C(=O)N[C@@H](CO)C(=O)N[C@@H](CC(N)=O)C(=O)N[C@@H](CC(N)=O)C(=O)N[C@@H](Cc1ccccc1)C(=O)NCC(=O)N1CCC[C@H]1C(=O)N[C@H](C(=O)N[C@@H](CC(C)C)C(=O)N1CCC[C@H]1C(=O)N1CCC[C@H]1C(=O)N[C@H](C(=O)N[C@@H](CCCCN)C(=O)N[C@H](C(=O)NCC(=O)N[C@@H](CO)C(=O)N[C@@H](CCC(=O)O)C(=O)N[C@H](C(=O)N[C@@H](Cc1ccc(O)cc1)C(N)=O)[C@@H](C)O)C(C)C)[C@@H](C)O)[C@@H](C)CC)C(=O)O)C(=O)O)C(=O)O` [Compound A13] (H-SCNTSTCATQRLANE[dK]([γGlu-γGlu-γGlu-Stearoyl])HKSSNNFGPILPPTKVGSETY-NH2; disulfide 2-7; N-terminus assumed), for which the results for the “Acute Food Intake % Inhibition vs vehicle” value in data set [1] (0-24 hr after acute SC dosing), in data set [1] (25-48 hr after acute SC dosing) and in data set [1] (49-72 hr after acute SC dosing) were 67%, 37% and 6%, respectively. Moreover, the solubility (commonly the dissolved amount per volume that the medium holds) in data set [2] (Solubility) amounted to 63 mg/mL (≈ 13.6 mM). Moreover, the “DIO Dose Response 13 d weight loss, ED50” value in data set [3] is 0.055 mg/kg. Further, in data set [3], the “DIO Dose Response 13 d weight loss, ΔΔ % weight loss” value amounted to 5%. Further, the Vd – broadly, a proportionality between amount in the body and measured concentration, not a real space – in “in vivo” (male, Sprague-Dawley) was 0.398 L/kg. In addition, the clearance (commonly the rate of elimination divided by the concentration) in “in vivo” (male, Sprague-Dawley) amounted to 0.705 mL/min/kg. Also, in “in vivo” (male, Sprague-Dawley), the half-life – broadly, the time needed for the level to fall by half in the phase considered – was 7.53 h. For the same compound, the “DIO Combination + Exenatide 27 d weight loss, ΔΔ % weight loss” value in data set [4] (dose 3 mcg/kg + Exenatide 10 mcg/kg) is 9%; in data set [4] (dose 10 mcg/kg + Exenatide 10 mcg/kg), 12%; in data set [4] (dose 30 mcg/kg + Exenatide 10 mcg/kg), 12%.

As to `CC[C@H](C)[C@H](NC(=O)[C@@H]1CCCN1C(=O)CNC(=O)[C@H](Cc1ccccc1)NC(=O)[C@H](CC(N)=O)NC(=O)[C@H](CC(N)=O)NC(=O)[C@H](CO)NC(=O)[C@H](CO)NC(=O)[C@H](CCCCN)NC(=O)[C@H](Cc1c[nH]cn1)NC(=O)[C@H](CC(C)C)NC(=O)[C@H](CCC(=O)O)NC(=O)[C@H](CC(N)=O)NC(=O)[C@H](C)NC(=O)[C@H](CC(C)C)NC(=O)[C@H](CCCNC(=N)N)NC(=O)[C@H](CCC(N)=O)NC(=O)[C@@H](NC(=O)[C@H](C)NC(=O)[C@@H]1CSSC[C@H](NC(=O)[C@@H](N)CCCCNC(=O)CC[C@H](NC(=O)CC[C@H](NC(=O)CCCCCCCCCCCCCCCCCCC(=O)O)C(=O)O)C(=O)O)C(=O)N[C@@H](CC(N)=O)C(=O)N[C@@H]([C@@H](C)O)C(=O)N[C@@H](CO)C(=O)N[C@@H]([C@@H](C)O)C(=O)N1)[C@@H](C)O)C(=O)N[C@@H](CC(C)C)C(=O)N1CCC[C@H]1C(=O)N1CCC[C@H]1C(=O)N[C@H](C(=O)N[C@@H](CCCCN)C(=O)N[C@H](C(=O)NCC(=O)N[C@@H](CO)C(=O)N[C@@H](CCC(=O)O)C(=O)N[C@H](C(=O)N[C@@H](Cc1ccc(O)cc1)C(N)=O)[C@@H](C)O)C(C)C)[C@@H](C)O` [Compound A64] (H-K([γGlu-γGlu-C20 diacid])CNTSTCATQRLANELHKSSNNFGPILPPTKVGSETY-NH2; disulfide 2-7; N-terminus assumed), the solubility was 123 mg/mL in data set [2] (Acetate salt, 20% DMSO in DI H2O, room temperature, read-out: Solubility); 104 mg/mL in data set [2] (Acetate salt, DI H2O, room temperature, read-out: Solubility); 88.3 mg/mL in data set [2] (Acetate salt, Saline, room temperature, read-out: Solubility); 56 mg/mL in data set [2] (TFA salt, 20% DMSO in DI H2O, room temperature, read-out: Solubility); 103 mg/mL in data set [2] (TFA salt, DI H2O, room temperature, read-out: Solubility). Moreover, the purity of parent peptide (indicative of stability) in data set [5] (20% DMSO in DI Water, Day 0 room temp) is 98.8%; in data set [5] (20% DMSO in DI Water, Day 5 37° C.) it was 98.1%; in data set [5] (20% DMSO in DI Water, Day 8 37° C.), 98.6%; in data set [5] (20% DMSO in DI Water, Day 12 37° C.), 97.9%; in data set [5] (20% DMSO in DI Water, Day 19 37° C.), 97.2%; in data set [5] (20% DMSO in DI Water, Day 25 37° C.), 97.3%. For the same compound, the purity of parent peptide (indicative of stability) in data set [5] (20% DMSO in DI Water, Day 32 37° C.) stood at 97.2%; in data set [5] (DI Water, Day 0 room temp), 100%; in data set [5] (DI Water, Day 5 37° C.), 99.1%; in data set [5] (DI Water, Day 8 37° C.), 98.1%; in data set [5] (DI Water, Day 12 37° C.), 98.1%; in data set [5] (DI Water, Day 19 37° C.), 97.4%. Besides, the purity of parent peptide (indicative of stability) in data set [5] (DI Water, Day 25 37° C.) is 97.3%; in data set [5] (DI Water, Day 32 37° C.) it was 88.5%. Further, the Vd in “in vivo” stood at 0.182 L/kg. Moreover, the clearance in the data set “in vivo” was 0.0641 mL/min/kg. In addition, in the data set “in vivo”, the half-life is 37.2 h.

As to `CC[C@H](C)[C@H](NC(=O)[C@@H]1CCCN1C(=O)CNC(=O)[C@H](Cc1ccccc1)NC(=O)[C@H](CC(N)=O)NC(=O)[C@H](CC(N)=O)NC(=O)[C@H](CO)NC(=O)[C@H](CO)NC(=O)[C@H](CCCCN)NC(=O)[C@H](Cc1c[nH]cn1)NC(=O)[C@H](CC(C)C)NC(=O)[C@H](CCC(=O)O)NC(=O)[C@H](CC(N)=O)NC(=O)[C@H](C)NC(=O)[C@H](CC(C)C)NC(=O)[C@H](CCCNC(=N)N)NC(=O)[C@H](CCC(N)=O)NC(=O)[C@@H](NC(=O)[C@H](C)NC(=O)[C@@H]1CSSC[C@H](NC(=O)[C@@H](N)CCCCNC(=O)CC[C@H](NC(=O)CC[C@H](NC(=O)CCCCCCCCCCCCCCCCC(=O)O)C(=O)O)C(=O)O)C(=O)N[C@@H](CC(N)=O)C(=O)N[C@@H]([C@@H](C)O)C(=O)N[C@@H](CO)C(=O)N[C@@H]([C@@H](C)O)C(=O)N1)[C@@H](C)O)C(=O)N[C@@H](CC(C)C)C(=O)N1CCC[C@H]1C(=O)N1CCC[C@H]1C(=O)N[C@H](C(=O)N[C@@H](CCCCN)C(=O)N[C@H](C(=O)NCC(=O)N[C@@H](CO)C(=O)N[C@@H](CCC(=O)O)C(=O)N[C@H](C(=O)N[C@@H](Cc1ccc(O)cc1)C(N)=O)[C@@H](C)O)C(C)C)[C@@H](C)O` [Compound A65] (H-K([γGlu-γGlu-C18 diacid])CNTSTCATQRLANELHKSSNNFGPILPPTKVGSETY-NH2; disulfide 2-7; N-terminus assumed), the “Acute Food Intake % Inhibition vs vehicle” value in data set [1] (0-24 hr after acute SC dosing) is on record as 50%; in data set [1] (25-48 hr after acute SC dosing) it was 25%; in data set [1] (49-72 hr after acute SC dosing), 14%. The solubility in data set [2] (deionised water, TFA salt, DI H2O, room temperature, read-out: Solubility) was 138 mg/mL. The “DIO Dose Response 13 d weight loss, ED50” value in data set [3] stood at 0.07 mg/kg. Further, the “DIO Dose Response 13 d weight loss, ΔΔ % weight loss” value in data set [3] is on record as 3%. This compound gave a Vd in “in vivo” (male, Sprague-Dawley) of 0.175 L/kg. In “in vivo” (male, Sprague-Dawley), this compound returned a clearance of 0.101 mL/min/kg. The compound also had a half-life in “in vivo” (male, Sprague-Dawley) of 22.6 h. For the same compound, the results for the “DIO Combination + Exenatide 27 d weight loss, ΔΔ % weight loss” value in data set [4] (dose 100 mcg/kg + Exenatide 10 mcg/kg), in data set [4] (dose 300 mcg/kg + Exenatide 10 mcg/kg) and in data set [4] (dose 600 mcg/kg + Exenatide 10 mcg/kg) were 8%, 9% and 12%, respectively.

Turning to davalintide, in data set [6], the half-life result is reported as “about 26 minutes”.

On to “human amylin (KCNTATCATQRLANFLVHSSNNFGAILSSTNVGSNTY) [37-residue polypeptide hormone co-secreted with insulin from pancreatic β-cells]”, for which, in data set [7], the half-life result is listed as “about 13 minutes”.
